# Measured values from PMC8830681, “Circadian control of heparan sulfate levels times phagocytosis of amyloid beta aggregates” (PLoS Genetics, 2022).
# What was measured:
# [1] = system: bone-marrow derived macrophages (BMDMs) from Per2::Luc C57BL/6J mice; test: Phagocytosis assay of HiLyte 488 labeled amyloid-beta by serum-shock synchronized macrophages (with or without heparinases); type: cell-based, mouse; details: ECHO v4.1 fit, average of 3 replicates, log10 mean cell fluorescence, 2 h uptake every 4 h PS16-PS40, WT Per2::Luc BMDMs
# From the text: To do so, we modified a previously-employed BMDM phagocytosis assay (as BMDMs are both models for activated microglia and are known to migrate into the brain in late-stage AD), to use fluorescently labeled Aβ42 to determine if the phagocytosis of Aβ42 is controlled by the circadian clock. In brief, BMDMs were derived from bone marrow progenitor cells extracted from Per2::Luc C57BL/6J mice and differentiated with recombinant Macrophage Colony Stimulating Factor (M-CSF), with flow cytometry confirming complete differentiation into naïve peripheral macrophages. […] 16 h after synchronization, confluent dishes of these BMDMs were treated HiLyte 488 labeled Aβ42 (Anaspec), in triplicate, every 4 h over a 24 h circadian period. BMDMs treated with labeled Aβ42 were harvested two hours after Aβ42 treatment and fixed with formalin. Total cellular fluorescence levels were analyzed with fluorescent confocal microscopy and quantified using a custom cell measurement MATLAB script (Fig 1A, S2 Fig, and S1 Table).
# Bone marrow was harvested from the femurs and tibias of one 3–6-month-old male mouse using a 26 g needle and syringe filled with DMEM supplemented media. ACK lysing buffer (Lonza 10-548E) was used to lyse red blood cells in order to prevent erythrocyte contamination. Filtered bone marrow cells were counted using a BioRad TC20 automated cell counter and plated on 35 mm cell culture plates at a density of 1 x 10^6 in macrophage differentiation media. After three days of incubation at 37°C with 5% CO2, fresh macrophage differentiation media was added. After another 3 days of incubation, the cells were washed with 2 ml warm PBS per plate, and replaced with macrophage assay media, and the cultures were incubated for 24 h. Macrophage cultures were then washed with 2 ml warm PBS, macrophage serum starvation media was added, and the plates were incubated in the starve media for 24 h. Next, macrophage serum starvation media was removed, and macrophage serum shock media was added, and cultures were incubated for 2 h. Macrophage cultures were then washed with 2 ml warmed PBS each and macrophage media Luciferin was added. Cultures were sealed with grease and glass cover slips and placed in a LumiCycle 32 luminometer (Actimetrics) to confirm synchronization of circadian rhythmicity. Assays began 16 h post serum shock to allow the synchronized cells to return to homeostasis.
# All amyloid-beta isoforms were reconstituted 24 h or less before experimentation in water and PBS (1:1) and were dissolved using sonication for approximately 30 min. The reconstituted Aβ was pooled from individual vials before aliquoting for each experimental replicate. The aliquots were then flash frozen and stored at -80°C until 20 min before use.
# Using synchronized macrophages (as described above) starting at PS16 macrophages were treated every 4 h for 24 h, in triplicate, with 115 μl (0.25 mg/ml) of fluorescently labeled amyloid-beta (PS16, PS20, PS24, PS28, PS32, PS36, and PS40) and heparinases at the reported activity levels (S5 Table). The treated macrophages were then incubated at 37°C for 2 h. Following the two-hour incubation, the media was aspirated, and the macrophages were washed with 2ml of PBS three times before Cell Stripper (Corning 25-056-CI) was added to the cultures, which were then incubated at 37°C for 3 min. Detached macrophages were next centrifuged at 400 g for 5 min, the supernatant was aspirated, and the macrophage cell pellets were resuspended in formalin and incubated in the dark at room temperature for 30 min. Macrophages were then centrifuged for 5 min at 400 g, the supernatant was aspirated, and the macrophages were resuspended in 250 μL of PBS and kept at 4°C. The fixed macrophages were imaged using fluorescent microscopy within a week of the experiment. All fluorescent images from the phagocytosis experiments are available on Mendeley Data (doi: 10.17632/zrmgjyggmr.1). […]
# [2] = as a free peptide and when bound to HSPGs; cited from earlier work
# From the text: In addition to binding Aβ42, HSPGs regulate the formation of Aβ42 plaques, with highly-sulfated HSPGs accumulating in the plaques. Aβ peptides exist in two forms (Aβ40 or Aβ42) based on the cleavage of the amyloid precursor protein (APP) by β- and γ-secretase. Previous studies show differential phagocytosis of Aβ42 and Aβ40, yet the key amino acids essential to binding are present in Aβ40 (Fig 6C) (13–16, HHQK). However, the anionic bridge between lysine 28 and […], which is broken by HSPGs to allow the formation of Aβ42 aggregates by rapidl ...
# [3] = system: BMDMs from PER1^-/-/PER2^-/- knockout (KO) mice; test: Phagocytosis assay of HiLyte 488 labeled Aβ42 in clock knockout macrophages; type: cell-based, mouse
# Description: (Fig 1B and 1C, S1 Fig). The extended harmonic circadian oscillator model (ECHO version 4.1) was used to analyze the average of the three replicates from each timepoint and predicted that Aβ42 total cellular florescence, and therefore the phagocytosis of Aβ42, oscillated with a circadian period (~26 h, ECHO p-value = 1.61 x 10^−6). Additionally, when compared with PER2 levels extrapolated based on the lumicycle data of the macrophages sampled, we saw that total cellular fluorescence was highest after the zenith of PER2 levels (Fig 1B and 1C). The Aβ42 phagocytosis experiment was then repeated using PER1^-/-/PER2^-/- knockout (KO) mice to confirm the circadian influence of this relationship. BMDMs from the knockout mice were extracted, derived into naïve macrophages, and synchronized as described above. KO macrophages were treated with fluorescently labeled Aβ42 for 2 h, in triplicate, every 4 h for 24 h starting at PS16.
# PER2::LUC C57BL/6J male mice 3–6 months of age bred from Jackson Labs stock strains (Accession # 006852) were used for all WT experiments and were euthanized using CO2 gas and cervical dislocation. […]
# Average cellular pixel intensities were used as a proxy for of Aβ phagocytosis. At least 100 cells measured per time point were analyzed using the above-described software. […]
substance,measurement,setting,value
Amyloid-beta 42 labeled with HiLyte 488 [Aβ42],Oscillation Type,[1],Forced
same,aggregation kinetics compared with Aβ40 (in words),[2],higher aggregation kinetics
same,oscillation of Aβ42 phagocytosis in knockout macrophages (in words),"[3]; 2 h treatment, in triplicate, every 4 h for 24 h starting at PS16, total cellular fluorescence",ablation of the zenith of fluorescence at PS32
same,Oscillation Type,"[3]; ECHO v4.1 fit, average of 3 replicates, log10 mean cell fluorescence, 2 h uptake every 4 h from PS16, PER1-/-/PER2-/- KO BMDMs",Damped
